Source: patent US20130190314A1, “DERIVATIVES OF 6-CYCLOAMINO-2-THIENYL-3-(PYRIDIN-4-YL)IMIDAZO[1,2-b]-PYRIDAZINE AND 6-CYCLOAMINO-2-FURANYL-3-(PYRIDIN-4-YL)IMIDAZO[1,2-b]-PYRIDAZINE, PREPARATION AND THERAPEUTIC USE THEREOF” (priority 2008, published 2013)

Tests used:
[1] = system: Mper1-luc Rat-1 (P2C4) fibroblasts; test: Circadian cell assay: mPer1-promoter luciferase reporter, period prolongation; type: cell-based; conditions: effective concentration that induced a 1-hour prolongation of the circadian period
Method: Mper1-luc Rat-1 (P2C4) fibroblast cultures were prepared by dividing the cultures every 3-4 days (approximately 10-20% of confluence) on 150 cm^2 degassed polystyrene tissue culture flasks (Falcon® #35-5001) and maintained in growth medium [EMEM (Cellgro #10-010-CV); 10% foetal bovine serum (FBS; Gibco #16000-044); and 50 I.U./ml of penicillin-streptomycin (Cellgro #30-001-CI)] at 37° C. and under 5% CO2.
Cells obtained from Rat-1 fibroblast cultures at 30-50% of confluence as described above were co-transfected with vectors containing the selectable marker for zeocin resistance for a stable transfection and a luciferase reporter gene controlled by the mPer-1 promoter. After 24 to 48 hours, the cultures were divided on 96-well plates and maintained in growth medium supplemented with 50-100 μg/ml of zeocin (Invitrogen® #45-0430) for 10-14 days. The zeocin-resistant stable transfectants were evaluated for the expression of the reporter gene by adding 100 μM luciferin (Promega® #E1603®) to the growth medium and by assaying the luciferase activity on a TopCount® scintillation counter (Packard Model #C384V00). The Rat-1 cell clones expressing both zeocin resistance and luciferase activity controlled by mPer1 were serum-shock synchronized with 50% horse serum [HS (Gibco® #16050-122)] and the activity of the circadian reporter was evaluated. The P2C4 clone of Mper1-luc Rat-1 fibroblasts was selected to test the compound.
Mper1-luc Rat-1 (P2C4) fibroblasts at 40-50% of confluence, obtained according to the protocol described above, were plated out onto 96-well opaque tissue culture plates (Perkin Elmer® #6005680). The cultures are maintained in growth medium supplemented with 100 μg/mL of zeocin (Invitrogen #45-0430) until they have reached 100% of confluence (48-72 h). The cultures were then synchronized with 100 μl of synchronization medium [EMEM (Cellgro #10-010-CV); 100 I.U./ml of penicillin-streptomycin (Cellgro #30-001-C1); HS at 50% (Gibco #16050-122)] for 2 hours at 37° C. and under 5% CO2. After synchronization, the cultures were rinsed with 100 μl of EMEM (Cellgro #10-010-CV) for 10 minutes at ambient temperature. After rinsing, the medium was replaced with 300 μl of CO2 independent medium [CO2I (Gibco #18045-088); 2 mM L-glutamine (Cellgro #25-005-C1); 100 I.U./ml of penicillin-streptomycin (Cellgro #30-001-C1); 100 μM luciferin (Promega #E 1603)]. […]
The period analysis was performed either by determining the interval between the relative light emission minima over several days or by Fourier transform. […] The data were analysed by adjusting a hyperbolic curve to the data expressed as change of period (Y-axis) as a function of the concentration of the test compound (X-axis) in the XLfit™ software, and the CE Delta (t+1 h) was interpolated from this curve.

Row | SMILES | CE Delta (t + 1 h) [1] [nM] | melting point [°C]
1 | Cc1ccc(-c2nc3ccc(N4CCNCC4)nn3c2-c2ccncc2)s1 [Compound 10, 2-(5-methylthien-2-yl)-6-(piperazin-1-yl)-3-(pyridin-4-yl)imidazo[1,2-b]pyridazine] | 360 | 
2 | OCCN1CCN(c2ccc3nc(-c4ccc(Cl)s4)c(-c4ccncc4)n3n2)CC1 [Compound 14, 2-{4-[2-(5-chlorothien-2-yl)-3-(pyridin-4-yl)imidazo[1,2-b]pyridazin-6-yl](piperazin-1-yl)}ethanol] | 60 to 117 | 216 to 218
